This passage reports IC50 results from patent US10214531B2 (Institute for Drug Discovery, LLC, priority 2013, dated 2019).

What is called IC50 is the concentration that gives 50% inhibition.

Structures can show the parent of a compound that is named as a salt.

recombinant human AMCase, sequence (Q9BZP6 22-476): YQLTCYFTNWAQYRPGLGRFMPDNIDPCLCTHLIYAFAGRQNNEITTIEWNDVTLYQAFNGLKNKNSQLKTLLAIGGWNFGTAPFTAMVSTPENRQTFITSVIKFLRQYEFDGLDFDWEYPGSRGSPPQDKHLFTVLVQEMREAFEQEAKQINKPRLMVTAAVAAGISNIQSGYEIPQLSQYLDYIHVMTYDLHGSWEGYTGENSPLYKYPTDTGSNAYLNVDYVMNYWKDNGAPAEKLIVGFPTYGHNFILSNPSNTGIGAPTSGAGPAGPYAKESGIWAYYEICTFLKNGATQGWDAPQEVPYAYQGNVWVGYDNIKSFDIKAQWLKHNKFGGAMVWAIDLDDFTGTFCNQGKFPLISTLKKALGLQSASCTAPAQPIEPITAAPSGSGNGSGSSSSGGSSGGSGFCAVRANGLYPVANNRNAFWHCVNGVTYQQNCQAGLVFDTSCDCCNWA

For this assay, the target named is recombinant human AMCase (Homo sapiens, UniProt Q9BZP6). Briefly: Human AMCase Activity Assay. The assay is classed as biochemical. The settings on record: recombinant hAMCase, 4-methylumbelliferyl chitobioside substrate, citrate buffer pH 5.2, 37° C., 60 minutes; read-out: Activity (IC50 value key). The essentials:
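Recombinant human enzyme with fluorogenic 4-methylumbelliferyl β-D-N,N′-diacetylchitobioside substrate in citrate buffer, pH 5.2, 60 min at 37 °C in the dark with shaking. Read-out is 4MU fluorescence at 460 nm.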
On to `Nc1n[nH]c(N2CCC(CNCc3ccc(Br)cc3)CC2)n1` [Example 254, 5-(4-(((4-bromobenzyl)amino)methyl)piperidin-1-yl)-1H-1,2,4-triazol-3-amine], for which the IC50 was above 100 µM. `Nc1n[nH]c(N2CCC(C(=O)NCc3cc(C(F)(F)F)cc(C(F)(F)F)c3)CC2)n1` [Example 255, 1-(3-amino-1H-1,2,4-triazol-5-yl)-N-(3,5-bis(trifluoromethyl)benzyl)piperidine-4-carboxamide]: the IC50 was above 100 µM. As for `Nc1n[nH]c(N2CCC(CCCCO)(NS(=O)(=O)Cc3ccc(Br)cc3)CC2)n1` [Example 256, N-(1-(3-amino-1H-1,2,4-triazol-5-yl)-4-(4-hydroxybutyl)piperidin-4-yl)-1-(4-bromophenyl)methanesulfonamide], the IC50 lay within 1 to 10 µM.

With `Nc1n[nH]c(N2CCN(C(CCc3ccc(Br)cc3)Cc3ccccc3)CC2)n1` (centres unmarked) [Example 257, 5-(4-(4-(4-bromophenyl)-1-phenylbutan-2-yl)piperazin-1-yl)-1H-1,2,4-triazol-3-amine trifluoroacetate], the concentration for half-maximal inhibition (IC50) fell in the range of 0.1 to 1 µM. For `CC(C)(Oc1ccc(Cl)cc1)C(=O)N1CCN(c2nc(N)n[nH]2)CC1` [Example 258, 1-(4-(3-amino-1H-1,2,4-triazol-5-yl)piperazin-1-yl)-2-(4-chlorophenoxy)-2-methylpropan-1-one], the IC50 was above 100 µM.
